From PMC6410202, “Dual Action of the PN159/KLAL/MAP Peptide: Increase of Drug Penetration across Caco-2 Intestinal Barrier Model by Modulation of Tight Junctions and Plasma Membrane Permeability” (Pharmaceutics, 2019)

Experiment: Circular dichroism spectroscopy of the peptide
Type: physicochemical
Details: CD
Method: Far-UV circular dichroism (CD) spectra of the peptides were recorded at 25°C temperature on a J-810 spectropolarimeter (JASCO International Co. Ltd., Tokyo, Japan). The CD spectra were measured between 260 nm and 185 nm with an optical pathlength of 1 mm, at a peptide concentration of 0.1 mg/mL in Milli-Q water diluted directly from powder. The bandwidth was 2 nm and data pitch 0.5 nm, the scan speed was set to 100 nm/min and the integration time was 1 sec. Ten spectra were accumulated and plotted. The data were analyzed by CDSSTR method. To test the thermostability of the peptide structure the CD spectra were recorded between 25 °C and 55 °C temperature with a ramp rate of 5 °C/min on a JASCO J-810 spectropolarimeter by using a Peltier sample holder. The CD spectra were measured immediately between 260 and 185 nm with an optical pathlength of 1 mm, the peptide concentration was 0.1 mg/mL in Milli-Q water. The bandwidth was 2 nm and data pitch 1 nm, the scan speed was set to 100 nm/min, and the integration time was 1 sec. Five spectra were accumulated and plotted.

SMILES: CC(C)C[C@H](NC(=O)[C@H](C)NC(=O)[C@H](CCCCN)NC(=O)[C@H](CC(C)C)NC(=O)[C@H](C)NC(=O)[C@H](CC(C)C)NC(=O)[C@H](CCCCN)NC(=O)[C@H](CC(C)C)NC(=O)[C@H](C)NC(=O)[C@H](CC(C)C)NC(=O)[C@@H](N)CCCCN)C(=O)N[C@@H](CCCCN)C(=O)N[C@@H](C)C(=O)N[C@@H](C)C(=O)N[C@@H](CC(C)C)C(=O)N[C@@H](CCCCN)C(=O)N[C@@H](CC(C)C)C(=O)N[C@@H](C)C(N)=O [PN159]
- Secondary structure, turns (25 °C, 0.1 mg/mL in water): 24%
- Secondary structure, unordered structure (25 °C, 0.1 mg/mL in water): 34%
- Secondary structure, α-helix (25 °C, 0.1 mg/mL in water): 11%
- Secondary structure, β-sheet (25 °C, 0.1 mg/mL in water): 31%
- Thermostability of secondary structure (between 25 and 55 °C): stable
